Reference: US5594004A, “Compound with platelet aggregation inhibitor activity” (Meiji Seika Kabushiki Kaisha, priority 1993, dated 1997)
Counter-ions that a name gives are not always drawn.

What was measured:
[1] = tested on: human PRP (platelet rich plasma); assay: Pharmacological test 1: inhibition of ADP-induced platelet aggregation in human PRP; format: cell-based; conditions: Platelet, ADP 5 μM inducer; for inhibition at 1 µM: inhibition rate at 10^-6 M; for IC50: Homo sapiens, platelet aggregation
Method: Pharmacological test 1 Inhibition of platelet aggregation
The effect of the compound according to the present invention on inhibiting the platelet aggregation was examined with human PRP (platelet rich plasma).
Nine volumes of a blood sample was taken out of the vein of a normal human with a syringe in which one volume of a 3.8% sodium citrate solution was charged. The blood sample was centrifuged at 170×g at room temperature for 10 minutes. The supernatant thus obtained was isolated as PRP. The residual blood sample that PRP had been taken out was centrifuged at 2,700×g for 15 minutes. The supernatant was then taken as platelet poor plasma (PPP).
Platelet aggregation test was conducted with an aggligometer (PAM-8C; manufactured by MEBANICKS Co., Ltd.). Compounds to be tested were dissolved in a 50% DMSO saline, a 50% methanol saline or physiological saline. The compound and PRP were preincubated for 2 minutes. The ADP (CHRONO-PAR REAGENTS 384 ADP, CHRONO-LOG Corp.) was used as an inducer in the form of a dilution with saline so that the final concentration is 5 μM.
Anti-platelet aggregation activity was obtained as an inhibition rate to platelet aggregation effect of ADP in the absence of a compound to be tested as follows: [formula] Physiological test 2 Inhibition of fibrinogen bonding to platelet GPIIb/IIIa

[2] = target: T1, human platelet GPIIb/IIIa (Homo sapiens, UniProt P05106+P08514); assay: Pharmacological test 2: inhibition of fibrinogen bonding to platelet GPIIb/IIIa (solid phase assay, biotinylated fibrinogen); format: binding; conditions: for inhibition at 10 µM: inhibition rate at 10^-5 M; for inhibition at 0.1 µM: inhibition rate at 10^-7 M; for IC50: fibrinogen bonding to GPIIb/IIIa
T1 construct: platelets collected from healthy adults; from tissue; host or cells: platelets from healthy adults (solubilized with octylglucoside, purified on GRGDSPK-Sepharose)
Method: Inhibiting effect of the compound according to the present invention on the binding of platelet GPIIb/IIIa and fibrinogen was examined with a solid phase human platelet GPIIb/IIIa bonding assay using biotinylated fibrinogen as a ligand. Human platelet GPIIb/IIIa was purified according to the method described by Pytela, R. et al. (Science, 231, 1559-1561 (1986)). […] The same amount of TBS containing 50 mM octylglucoside and 2 mM PMSF was added to the pellet obtained in order to solubilize the membrane protein at 4° C. for 20 minutes. […] The solubilized protein solution was adsorbed on a GRGDSPK-Sepharose column which had been equilibrated with TBS (Buffer A) containing 50 mM Octylglucoside, 1 mM CaCl2 and MgCl2. After the column was washed with Buffer A, the adsorbed GPIIb/IIIa was eluted with Buffer A containing 2 mM GRGDSP peptide. GRGDSPK-Sepharose was prepared by coupling GRGDSPK peptide and CNBr-activated Sepharose 4B (Pharmacia) according to the instruction of the manufacturer. Then, solid phase human platelet GPIIb/IIIa bonding assay was carried out according to the method of Mori et al. […] Purified human platelet GPIIb/IIIa was adjusted in an amount of 2 μg/ml and adsorbed in an amount of 50 μl on a 96 well-microtiter plate at 4° C. overnight. After washing with TBS containing 1 mM CaCl2 and 1 mM MgCl2, 100 μl of 1% bovine serum albumin was added, blocking was conducted at 4° C. overnight. […] After washing with TBS-Tween 20, 50 μl of peroxidase labelled avidin which had been diluted with TBS to 4,000 times was added. The reaction was continued for 20 minutes. […] A 50 μl portion of a 0.1M citrate buffer containing 0.05% NaN3 was added to stop the reaction, and absorbance at 415 nm was measured. The rate of Bonding inhibition was calculated from the following formula: [formula]

T1 sequence (P08514 32-887 limits assumed): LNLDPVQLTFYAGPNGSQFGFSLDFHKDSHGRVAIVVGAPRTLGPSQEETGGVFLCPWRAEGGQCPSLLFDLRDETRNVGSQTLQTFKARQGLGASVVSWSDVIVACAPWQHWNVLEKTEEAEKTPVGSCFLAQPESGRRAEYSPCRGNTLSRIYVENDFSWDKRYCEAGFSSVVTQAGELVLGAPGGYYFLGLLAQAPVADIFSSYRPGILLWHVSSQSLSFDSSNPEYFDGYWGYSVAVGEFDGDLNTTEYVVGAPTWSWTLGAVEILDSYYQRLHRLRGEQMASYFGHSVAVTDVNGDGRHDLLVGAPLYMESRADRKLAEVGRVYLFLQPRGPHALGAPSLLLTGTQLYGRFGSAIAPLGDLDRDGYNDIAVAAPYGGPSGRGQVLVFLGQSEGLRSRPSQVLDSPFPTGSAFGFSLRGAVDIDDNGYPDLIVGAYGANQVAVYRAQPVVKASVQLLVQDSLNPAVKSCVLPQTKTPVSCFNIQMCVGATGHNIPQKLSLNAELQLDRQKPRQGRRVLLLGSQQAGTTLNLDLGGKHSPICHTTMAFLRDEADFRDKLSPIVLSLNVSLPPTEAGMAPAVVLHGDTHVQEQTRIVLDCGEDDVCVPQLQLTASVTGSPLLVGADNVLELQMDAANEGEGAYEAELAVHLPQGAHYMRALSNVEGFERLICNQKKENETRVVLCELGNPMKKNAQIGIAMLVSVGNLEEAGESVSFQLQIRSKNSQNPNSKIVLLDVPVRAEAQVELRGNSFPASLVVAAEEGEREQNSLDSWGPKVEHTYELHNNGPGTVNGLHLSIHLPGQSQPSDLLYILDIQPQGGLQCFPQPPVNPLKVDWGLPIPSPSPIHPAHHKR
T1 sequence (P08514 891-1039 limits assumed): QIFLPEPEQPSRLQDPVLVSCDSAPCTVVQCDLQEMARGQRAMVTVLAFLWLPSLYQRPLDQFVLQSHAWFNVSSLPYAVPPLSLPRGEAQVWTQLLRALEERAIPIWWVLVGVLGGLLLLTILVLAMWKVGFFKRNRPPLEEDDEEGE
T1 sequence (P05106 27-788): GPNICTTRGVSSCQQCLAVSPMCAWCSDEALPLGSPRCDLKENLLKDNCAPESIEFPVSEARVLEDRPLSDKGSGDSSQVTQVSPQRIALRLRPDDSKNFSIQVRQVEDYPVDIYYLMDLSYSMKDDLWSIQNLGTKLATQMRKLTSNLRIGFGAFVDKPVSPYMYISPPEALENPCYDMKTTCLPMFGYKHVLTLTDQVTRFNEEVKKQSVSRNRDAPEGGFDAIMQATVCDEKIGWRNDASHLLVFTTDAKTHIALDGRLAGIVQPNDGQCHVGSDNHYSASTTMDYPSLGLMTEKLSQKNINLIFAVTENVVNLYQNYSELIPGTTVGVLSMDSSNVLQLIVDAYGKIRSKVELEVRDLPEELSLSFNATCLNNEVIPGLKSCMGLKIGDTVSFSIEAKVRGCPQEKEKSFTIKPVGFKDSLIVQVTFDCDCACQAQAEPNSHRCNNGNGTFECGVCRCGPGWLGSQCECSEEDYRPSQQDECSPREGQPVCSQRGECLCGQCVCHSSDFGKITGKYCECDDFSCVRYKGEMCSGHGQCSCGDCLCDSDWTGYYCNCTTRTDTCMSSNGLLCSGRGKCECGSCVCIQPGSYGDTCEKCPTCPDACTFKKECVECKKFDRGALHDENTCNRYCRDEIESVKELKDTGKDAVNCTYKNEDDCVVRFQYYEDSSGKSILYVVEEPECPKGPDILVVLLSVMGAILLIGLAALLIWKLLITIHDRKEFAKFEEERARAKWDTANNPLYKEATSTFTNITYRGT

Row | Compound | inhibition at 1 µM [1] | inhibition at 10 µM [2] | inhibition at 0.1 µM [2] | IC50 [1] | IC50 [2]
1 | NC[C@H]1CC[C@H](C(=O)NCC(=O)c2ccc(OCC(=O)O)c(OCC(=O)O)c2)CC1 [Example 1, [[4-[[[trans-4-(aminomethyl)cyclohexyl]carbonylamino]acetyl]-o-phenylene]dioxy]diacetic acid trifluoroacetate] | 68% | 51% |  |  | 
2 | NCC1CCC(c2ncc(-c3ccc(OCC(=O)O)c(OCC(=O)O)c3)o2)CC1 (stereo not shown) [Example 4, 2-(4-aminomethylcyclohexyl)-5-(3,4-dicarboxymethoxy)phenyloxazole] | 85% | 73% |  |  | 
3 | NC[C@H]1CC[C@H](C(=O)NCCc2ccc(OCC(=O)O)c(OCC(=O)O)c2)CC1 [Example 7, [[4-[[2-[trans-4-(aminomethyl)cyclohexyl]carbonylamino]ethyl]-o-phenylene]dioxy]diacetic acid trifluoroacetate] | 48% | 27% |  |  | 
4 | CN(CC(=O)c1ccc(OCC(=O)O)c(OCC(=O)O)c1)C(=O)CCC1CCNCC1 [Example 9, [[4-[[N-[3-(piperidin-4-yl)propionyl]-N-methylamino]acetyl]-o-phenylene]dioxy]diacetic acid trifluoroacetate] | 79% |  | 73% |  | 
5 | O=C(O)COc1ccc(C(=O)CNC(=O)CCC2CCNCC2)cc1OCC(=O)O [Example 10, [[4-[[N-[3-(piperidin-4-yl)propionyl]amino]acetyl]-o-phenylene]dioxy]diacetic acid trifluoroaceetate] | 85% |  | 82% | 350 nM | 
6 | O=C(O)COc1ccc(C(=O)CNC(=O)c2cc3c(s2)CCNC3)cc1OCC(=O)O [Example 18, [[4-[[[(4,5,6,7-tetrahydrothieno [3,2-c]pyridin-2-yl]carbonyl]amino]acetyl]-o-phenylene]dioxy]diacetic acid trifluoroacetate] |  |  |  | 140 nM | 1700 nM
7 | CN(CC(=O)c1ccc(OCC(=O)O)c(OCC(=O)O)c1)C(=O)c1cc2c(s1)CCNC2 [Example 19, [[4-[[[(4,5,6,7-tetrahydrothieno[3,2-c]pyridin-2-yl)carbonyl]-N-methylamino]acetyl]-o-phenylene]dioxy]diacetic acid trifluoroacetate] |  |  |  | 550 nM | 3600 nM
8 | O=C(O)CCc1ccc(C(=O)CNC(=O)c2cc3c(s2)CCNC3)cc1 [Example 20, 3-[4-[[(4,5,6,7-tetrahydrothieno[3,2-c]pyridin-2-yl)carbonyl]aminoacetyl]phenyl]propionic acid trifluoroacetate] |  |  |  |  | 34000 nM
9 | O=C(O)COc1ccc(C(O)CNC(=O)c2cc3c(s2)CCNC3)nc1 (stereo not shown) [Example 21, 2-[1-hydroxy-2-[(4,5,6,7-tetrahydrothieno[3,2-c]pyridin-2-yl)carbonylamino]ethyl]pyridin-5-yloxyacetic acid trifluoroacetate] |  |  |  | 500 nM | 10000 nM
10 | O=C(O)COc1ccc(C(=O)CNC(=O)c2cc3c(s2)CCNC3)cc1 [Example 22, 4-[[(4,5,6,7-tetrahydrothieno[3,2-c]pyridin-2-yl)carbonyl]aminoacetyl]phenoxyacetic acid trifluoroacetate] |  |  |  | 1200 nM | > 10000 nM
11 | Cc1c(C(=O)NCC(=O)c2ccc(OCC(=O)O)c(OCC(=O)O)c2)sc2c1CNCC2 [Example 27, [[4-[[[(3-methyl-4,5,6,7-tetrahydrothieno[3.2-c]pyridin-2-yl)carbonyl]amino]acetyl]-o-phenylene]dioxy]diacetic acid trifluoroacetate] |  |  |  | 2500 nM | 9500 nM
